Measurements from US6541505B1, “Substituted (aminoiminomethyl or aminomethyl) benzoheteroaryl compounds” (Aventis Pharmaceuticals Inc., priority 1998, dated 2003).
Where a name gives a salt, the structure may show the parent alone.

How the values were obtained:
[1] = system: rabbit carotid artery air-drying injury model; conditions: after vascular injury; cited from earlier work

| melting point [°C] | SMILES | neointimal proliferation [1] |
| --- | --- | --- |
| 237 to 238 | COc1ccc(-c2ccc(C(=O)NCCc3ccc4c(c3)c(C(=N)N)cn4C)cc2)cn1 [Example 1ad, N-(2-[3-Carbamimidoyl-1-methylindol-5-yl]ethyl)-4-(6-methoxypyrid-3-yl)benzamide] |  |
| 196 to 199 | N=C(N)c1c[nH]c2ccc(CCNC(=O)c3ccc(-n4cncn4)nc3)cc12 [Example 1aa, N-(2-[3-Carbamimidoylindol-5-yl]ethyl)-6-(1,2,4)triazol-1-ylnicotinamide] |  |
| 52 to 54 | N=C(N)c1c[nH]c2ccc(CCNC(=O)c3ccc(-c4cnc[nH]4)cc3)cc12 [Example 1h, N-(2-[3-Carbamimidoylindol-5-yl]ethyl)-4-(3H-imidazol-4-yl)benzamide] |  |
| 213 to 214 | N=C(N)c1c[nH]c2ccc(CCNC(=O)c3ccc(-n4cccc4)nc3)cc12 [Example 1ab, N-(2-[3-Carbamimidoylindol-5-yl]ethyl)-6-pyrrol-1-ylnicotinamide] |  |
| 152 to 156 | N=C(N)c1c[nH]c2ccc(CCNC(=O)c3ccc(-c4ccc(=O)[nH]c4)cc3)cc12 [Example 1v, N-(2-[3-carbamimidoyl-1H-indol-5-yl]ethyl)-4-(6-oxo-1,6-dihydro-pyrid-3-yl)benzamide] |  |
| 94 to 97 | CN(C)CCn1cc(-c2ccc(C(=O)NCCc3ccc4[nH]cc(C(=N)N)c4c3)cc2)ccc1=O [Example 1ap, N-(2-[3-Carbamimidoylindol-5-yl]ethyl)-4-(1-[2-dimethylaminoethyl]-6-oxo-1,6-dihydropyridin-3-yl)benzamide] |  |
| 102 to 105 | N=C(N)c1c[nH]c2ccc(CCNC(=O)c3ccc(NCCO)nc3)cc12 [Example 1z, N-(2-[3-Carbamimidoylindol-5-yl]ethyl)-6-(2-hydroxyethylamino)nicotinamide] |  |
| > 250 | COc1ccc(-c2ccc(C(=O)NCCc3ccc4[nH]cc(C(=N)N)c4c3)cc2)cc1OC (as salt: salt) [Example 1o, 3′,4′-Dimethoxybiphenyl-4-carboxylic acid (2-[3-carbamimidoylindol-5-yl]ethyl)amide] |  |
| 198 to 200 | N=C(N)c1c[nH]c2ccc(CCNC(=O)c3ccc(-c4ccccn4)s3)cc12 [Example 1c, 5-(Pyrid-2-yl)-thiophene-2-carboxylic acid 2-(3-carbamimidoyl-5-indolyl)ethyl amide] |  |
| 244 to 245 | N=C(N)c1c[nH]c2ccc(CCNC(=O)c3ccc(-c4ccc(=O)n(CC(N)=O)c4)cc3)cc12 [Example 1aq, N-(2-[3-Carbamimidoylindol-5-yl]ethyl)-4-(1-carbamoylmethyl-6-oxo-1,6-dihydropyridin-3-yl)benzamide] |  |

The next lines start with the molecule.

| SMILES | melting point [°C] | neointimal proliferation [1] |
| --- | --- | --- |
| CC(=N)N1CC[C@H](Oc2ccc([C@H](Cc3ccc4ccc(C(=N)N)cc4c3)C(=O)O)cc2)C1 [DX-9065a] |  | less neointimal proliferation |
| N=C(N)c1c[nH]c2ccc(CCNC(=O)c3ccc(-c4ccnc(NC5CC6CCC5C6)n4)cc3)cc12 (stereo not shown) (as salt: salt) [Example 1aaat, 4-[2-(Bicyclo[2.2.1]hept-2-ylamino)pyrimidin-4-yl]-N-[2-(3-carbamimidoyl-1H-indol-5-yl)ethyl]benzamide] | 152 to 155 |  |
| N=C(N)c1c[nH]c2ccc(CCNC(=O)c3ccc(-c4ccnc(CNCCCC(=O)O)n4)cc3)cc12 (as salt: salt) [Example 1aaaf, 4-[(4-{4-[2-(3-Carbamimidoyl-1H-indol-5-yl)ethylcarbamoyl]phenyl}pyrimidin-2-yl)methylamino]butyric acid] | 100 to 104 |  |
| CN(C)CCCOc1ccc(-c2ccc(C(=O)NCCc3ccc4[nH]cc(C(=N)N)c4c3)cc2)cn1 (as salt: salt) [Example 1aaaaab, N-[2-(3-Carbamimidoyl-1H-indol-5-yl)ethyl]-4-[6-(3-dimethylaminopropoxy)pyridin-3-yl]benzamide] | 84 to 86 |  |
| N=C(N)c1c[nH]c2ccc(CCNC(=O)c3ccc(-c4ccnc(NCCCCCCN5CCOCC5)n4)cc3)cc12 [Example 1aaaq, N-[2-(3-Carbamimidoyl-1H-indol-5-yl)ethyl]-4-[2-(6-morpholin-4-ylhexylamino)pyrimidin-4-yl]benzamide] | 129 to 130 |  |
| N=C(N)c1c[nH]c2ccc(CCNC(=O)c3ccc(-c4ccnc(NCCCCCCN5CCCCC5)n4)cc3)cc12 [Example 1aaam, N-[2-(3-Carbamimidoyl-1H-indol-5-yl)ethyl]-4-[2-(6-piperidin-1-ylhexylamino)pyrimidin-4-yl]benzamide] | 110 to 113 |  |
| N=C(N)c1c[nH]c2ccc(CCNC(=O)c3ccc(-c4ccnc(OCC(F)(F)F)n4)cc3)cc12 [Example 1aaag, N-[2-(3-Carbamimidoyl-1H-indol-5-yl)ethyl]-4-[2-(2,2,2-trifluoroethoxy)pyrimidin-4-yl]benzamide] | 194 to 195 |  |
| N=C(N)c1c[nH]c2ccc(CCNC(=O)c3ccc(-c4ccnc(N5CCCC5C(N)=O)n4)cc3)cc12 (stereo not shown) (as salt: salt) [Example 1aaau, 1-(4-{4-[2-(3-Carbamimidoyl-1H-indol-5-yl)ethylcarbamoyl]phenyl}pyrimidin-2-yl)pyrrolidine-2-carboxylic acid amide] | 139 to 141 |  |
| CN(C)CCOc1nccc(-c2ccc(C(=O)NCCc3ccc4[nH]cc(C(=N)N)c4c3)cc2)n1 [Example 1aaaar, N-[2-(3-Carbamimidoyl-1H-indol-5-yl)ethyl]-4-[2-(2-dimethylaminoethoxy)pyrimidin-4-yl]benzamide] | 106 to 107 |  |
| CN(C)CCCOc1ccccc1-c1ccc(C(=O)NCCc2ccc3[nH]cc(C(=N)N)c3c2)cc1 [Example 1aaaav, 2′-(3-Dimethylaminopropoxy)biphenyl-4-carboxylic acid [2-(3-carbamimidoyl-1H-indol-5-yl)ethyl]amide] | 76 to 78 |  |
| N=C(N)c1c[nH]c2ccc(CCNC(=O)c3ccc(-c4ccncc4)cc3)cc12 [Example 1aaaaaaa, N-(2-[3-Carbamimidoylindol-5-yl]ethyl)-4-pyrid-4-ylbenzamide] | 113 to 116 |  |
| COCCOc1nccc(-c2ccc(C(=O)NCCc3ccc4[nH]cc(C(=N)N)c4c3)cc2)n1 (as salt: salt) [Example 1aaaal, N-[2-(3-Carbamimidoyl-1H-indol-5-yl)-ethyl]-4-[2-(2-methoxyethoxy)-pyrimidin-4-yl]benzamide] | 122 to 124 |  |
